Measured values taken from patent US10695427B2, “Shape memory particles for biomedical uses” (The Johns Hopkins University, priority 2015, dated 2020).

How the values were obtained:
MDA-MB-231 cells [1] = test: Paclitaxel/digoxin treatment of TNBC orthografts (tumor volume, Aldefluor assay, RT-qPCR); assay type: in vivo, mice; details: tumors harvested on day 12; for percentage of ALDH+ cells (Aldefluor assay): compared with saline treatment
Experimental: MDA-MB-231 cells were implanted into the mammary fat pad of female severe combined immunodeficiency (Scid) mice. Mice were randomized to four groups, which were treated with: saline (control, C); digoxin (D); paclitaxel (P); or paclitaxel and digoxin (P/D). […] Tumors were harvested on day 12 for Aldefluor assay to determine the percentage of aldehyde dehydrogenase-expressing (ALDH^+) BCSCs (FIG. 17B) and RT-qPCR assays to quantify the expression of mRNAs encoding interleukin (IL) 8, IL-6, and the multidrug drug resistance protein MDR1 (FIG. 17C).

MDA-MB-231 cells [2] = test: Gemcitabine/digoxin combination therapy, tumor relapse; assay type: in vivo, mice
Experimental: MDA-MB-231 cells were implanted into the mammary fat pad of female Scid mice. When a tumor was palpable (day 1), the mice were randomized to three groups, which were treated with intraperitoneal injections of: saline, gemcitabine [20 mg/kg on days 5, 10, 15, 20, and 25 (arrows)], or gemcitabine and digoxin (2 mg/kg on days 1-25). Tumor volumes were determined every 2-3 d and mean±SEM (n=3) are shown.
To examine the effect of HIF inhibition on tumor relapse, MDA-MB-231 cells were implanted into the mammary fat pad of Scid mice. When the tumor became palpable, the mice were randomized to receive intraperitoneal injections of saline, gemcitabine (20 mg/kg on days 5, 10, 15, 20, and 25), or the combination of digoxin (2 mg/kg on days 1-25) and gemcitabine.

CC(=O)O[C@H]1C(=O)[C@@]2(C)[C@H]([C@H](OC(=O)c3ccccc3)[C@]3(O)C[C@H](OC(=O)[C@H](O)[C@@H](NC(=O)c4ccccc4)c4ccccc4)C(C)=C1C3(C)C)[C@]1(OC(C)=O)CO[C@@H]1C[C@@H]2O [paclitaxel]
expression of IL-6, IL-8, and MDR1 mRNA (MDA-MB-231 cells [1]; RT-qPCR): increased | percentage of ALDH+ cells (Aldefluor assay) (MDA-MB-231 cells [1]): significantly increased

Nc1ccn([C@@H]2O[C@H](CO)[C@@H](O)C2(F)F)c(=O)n1 [gemcitabine]
tumor growth during treatment (MDA-MB-231 cells [2]; intraperitoneal, gemcitabine 20 mg/kg days 5, 10, 15, 20, 25, digoxin 2 mg/kg days 1-25, Scid mice): markedly reduced tumor growth | tumor growth after treatment was discontinued (relapse) (MDA-MB-231 cells [2]; up to day 32, 7 days after treatment was discontinued): rapid tumor growth resumed

C[C@H]1O[C@@H](O[C@H]2[C@@H](O)C[C@H](O[C@H]3[C@@H](O)C[C@H](O[C@H]4CC[C@@]5(C)[C@H](CC[C@@H]6[C@@H]5C[C@@H](O)[C@]5(C)[C@@H](C7=CC(=O)OC7)CC[C@]65O)C4)O[C@@H]3C)O[C@@H]2C)C[C@H](O)[C@@H]1O [digoxin]
percentage of ALDH+ cells (Aldefluor assay) (MDA-MB-231 cells [1]): significantly decreased
